# Data published in patent US20250092065A1, “2-(INDAZOL-5-YL)-6-(PIPERIDIN-4-YL)-1,7-NAPHTHYRIDINE DERIVATIVES AND RELATED COMPOUNDS AS MODULATORS FOR SPLICING NUCLEIC ACIDS AND FOR THE TREATMENT OF PROLIFERATIVE DISEASES” (REMIX THERAPEUTICS INC., priority 2022, published 2025).
# Where two headings read alike, the source gives them in different places.
# What was measured:
# Format in all cases: cell-based, human
# [1] = test system: HTT mRNA; test: RT-qPCR splicing assay, HTT mRNA canonical (CJ) and alternative (AJ) junction; details: Homo sapiens; for AC50: HTT alternative junction mRNA, read-out: HTT AJ (increase in AJ mRNA, AC50)
# Procedure, shortened: (§1)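 Splice switching quantified in compound-treated A673/K562 cells after 24 h exposure (top dose 10 uM, 3-fold steps, ≤0.25% DMSO), using CJ and AJ qPCR assays run at least in duplicate. RQ derived by 2^(−ΔΔCt), then percentage response.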
# [2] = test system: MYB mRNA; test: RT-qPCR splicing assay, MYB mRNA canonical (CJ) and alternative (AJ) junction; details: Homo sapiens; for AC50: MYB alternative junction mRNA, read-out: MYB AJ (increase in AJ mRNA, AC50)
# Procedure, shortened: as §1
# [3] = test system: SMN2 mRNA; test: RT-qPCR splicing assay, SMN2 mRNA; details: Homo sapiens, canonical junction qPCR panel, Table 4; read-out: SMN2 IC50 (decrease in CJ mRNA levels)
# Procedure, shortened: as §1
# [4] = test system: MYB; test: HiBiT protein abundance assay, MYB (K562 HiBiT knock-in); details: HiBiT knock-in K562 cells, 24 hours, top dose 10 μM
# Procedure, shortened: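 Steps: seed HiBiT knock-in K562 cells; add compound in 10-point 3-fold series from 10 μM final; incubate 24 h, 37 °C; add lytic HiBiT reagent, shake 5 min, wait 10 min; read luminescence. Normalize to parental K562 and DMSO controls, fit 4PL, take IC50.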
# [5] = HTT canonical junction mRNA, RT-qPCR, read-out: HTT CJ (decrease in CJ mRNA levels, IC50)
# [6] = canonical junction qPCR panel, Table 4, read-out: HTT IC50 (decrease in CJ mRNA levels)
# [7] = MYB canonical junction mRNA, RT-qPCR, read-out: MYB CJ (decrease in CJ mRNA levels, IC50)
# [8] = canonical junction qPCR panel, Table 4, read-out: MYB IC50 (decrease in CJ mRNA levels)
SMILES,"IC50 [1, 5]","IC50 [1, 6]","IC50 [2, 7]","IC50 [2, 8]",IC50 [3],IC50 [4],AC50 ([1]; RT-qPCR),AC50 ([2]; RT-qPCR)
Cc1nc2c(F)c(O)c(-c3ccc4nc(N5CC[C@@H](N[C@H]6C[C@@H](F)C6)C5)ccc4n3)cc2o1 (stereo in doubt) [Compound 375],< 0.1 µM,< 0.1 µM,< 0.1 µM,< 0.1 µM,< 0.1 µM,< 0.1 µM,< 0.1 µM,< 0.1 µM
Cc1nc2c(C)c(O)c(-c3ccc4nc(N5CC[C@H](N[C@H]6C[C@@H](F)C6)C5)ccc4n3)cc2o1 (stereo in doubt) [Compound 377],< 0.1 µM,< 0.1 µM,< 0.1 µM,< 0.1 µM,< 0.1 µM,< 0.1 µM,< 0.1 µM,< 0.1 µM
Cc1nc2cc(O)c(-c3ccc4nc(N5CC[C@H](N[C@H]6C[C@@H](F)C6)C5)ccc4n3)cc2o1 (stereo in doubt) [Compound 396],< 0.1 µM,< 0.1 µM,0.1 to 1 µM,0.1 to 1 µM,< 0.1 µM,0.1 to 1 µM,< 0.1 µM,0.1 to 1 µM
"Cn1cc2cc(-c3ccc4nc(N5CC[C@@H](NC6(CF)CC6)C5)ccc4n3)c(O)cc2n1 [Compound 354, 5-{6-[(3R)-3-{[1-(fluoromethyl)cyclopropyl]amino}pyrrolidin-1-yl]-1,5-naphthyridin-2-yl}-2-methylindazol-6-ol]",< 0.1 µM,< 0.1 µM,< 0.1 µM,< 0.1 µM,< 0.1 µM,< 0.1 µM,< 0.1 µM,< 0.1 µM
"Cn1cc2cc(-c3ccc4nc(N5CC[C@H](NC6(CF)CC6)C5)ccc4n3)c(O)cc2n1 [Compound 355, 5-{6-[(3S)-3-{[1-(fluoromethyl)cyclopropyl]amino}pyrrolidin-1-yl]-1,5-naphthyridin-2-yl}-2-methylindazol-6-ol]",< 0.1 µM,< 0.1 µM,< 0.1 µM,< 0.1 µM,< 0.1 µM,< 0.1 µM,< 0.1 µM,< 0.1 µM
"Cc1c(O)c(-c2ccc3nc(N4CCC(NC5(CF)CC5)C4)ccc3n2)cc2cn(C)nc12 (stereo not drawn) [Compound 360, 5-[6-(3-{[1-(fluoromethyl)cyclopropyl]amino}pyrrolidin-1-yl)-1,5-naphthyridin-2-yl]-2,7-dimethylindazol-6-ol]",< 0.1 µM,< 0.1 µM,< 0.1 µM,< 0.1 µM,< 0.1 µM,< 0.1 µM,< 0.1 µM,< 0.1 µM
"Cc1c(O)c(-c2ncc3nc(C4CCNCC4)ccc3n2)cc2cn(C)nc12 [Compound 370, 2,7-dimethyl-5-[6-(piperidin-4-yl)pyrido[3,2-d]pyrimidin-2-yl]indazol-6-ol]",0.1 to 1 µM,0.1 to 1 µM,0.1 to 1 µM,0.1 to 1 µM,< 0.1 µM,0.1 to 1 µM,1 to 10 µM,0.1 to 1 µM
"CNC1CCN(c2ccc3nc(-c4cc(C#N)c5nc(C)cn5c4)ncc3n2)C1 (stereo not drawn) [Compound 382, 2-methyl-6-{6-[3-(methylamino)pyrrolidin-1-yl]pyrido[3,2-d]pyrimidin-2-yl}imidazo[1,2-a]pyridine-8-carbonitrile]",0.1 to 1 µM,0.1 to 1 µM,< 0.1 µM,< 0.1 µM,< 0.1 µM,< 0.1 µM,0.1 to 1 µM,< 0.1 µM
"CC(C)NC1CCN(c2ccc3nc(-c4cc5cn(C)nc5c(F)c4O)ccc3n2)C1 (stereo not drawn) [Compound 388, 7-fluoro-5-{6-[3-(isopropylamino)pyrrolidin-1-yl]-1,5-naphthyridin-2-yl}-2-methylindazol-6-ol]",< 0.1 µM,< 0.1 µM,< 0.1 µM,< 0.1 µM,< 0.1 µM,< 0.1 µM,< 0.1 µM,< 0.1 µM
"Cc1nc2cc(O)c(-c3ccc4nc(N5CCC(NCC6CC6)C5)ccc4n3)cc2o1 (stereo not drawn) [Compound 389, 6-(6-{3-[(cyclopropylmethyl)amino]pyrrolidin-1-yl}-1,5-naphthyridin-2-yl)-2-methyl-1,3-benzoxazol-5-ol]",< 0.1 µM,< 0.1 µM,< 0.1 µM,< 0.1 µM,< 0.1 µM,< 0.1 µM,0.1 to 1 µM,< 0.1 µM
"Cc1nc2c(C)c(O)c(-c3ccc4nc(N5CCC(NCC6CC6)C5)ccc4n3)cc2o1 (stereo not drawn) [Compound 390, 6-(6-{3-[(cyclopropylmethyl)amino]pyrrolidin-1-yl}-1,5-naphthyridin-2-yl)-2,4-dimethyl-1,3-benzoxazol-5-ol]",< 0.1 µM,< 0.1 µM,< 0.1 µM,< 0.1 µM,< 0.1 µM,< 0.1 µM,< 0.1 µM,< 0.1 µM
"CNC1CCN(c2ccc3nc(-c4cc(F)c5nc(C)cn5c4)ncc3n2)C1 (stereo not drawn) [Compound 393, 1-(2-{8-fluoro-2-methylimidazo[1,2-a]pyridin-6-yl}pyrido[3,2-d]pyrimidin-6-yl)-N-methylpyrrolidin-3-amine]",0.1 to 1 µM,0.1 to 1 µM,< 0.1 µM,< 0.1 µM,< 0.1 µM,< 0.1 µM,0.1 to 1 µM,< 0.1 µM

# The next lines start with results.
"IC50 [1, 5]","IC50 [1, 6]","IC50 [2, 7]","IC50 [2, 8]",IC50 [3],IC50 [4],SMILES,AC50 ([1]; RT-qPCR),AC50 ([2]; RT-qPCR)
< 0.1 µM,< 0.1 µM,< 0.1 µM,< 0.1 µM,< 0.1 µM,< 0.1 µM,Cc1nc2c(C)c(O)c(-c3ccc4nc(N5CC[C@@H](N[C@H]6C[C@@H](F)C6)C5)ccc4n3)cc2o1 (stereo in doubt) [Compound 376],0.1 to 1 µM,< 0.1 µM
0.1 to 1 µM,0.1 to 1 µM,0.1 to 1 µM,0.1 to 1 µM,< 0.1 µM,0.1 to 1 µM,Cc1nc2cc(O)c(-c3ccc4nc(N5CC[C@@H](N[C@H]6C[C@@H](F)C6)C5)ccc4n3)cc2o1 (stereo in doubt) [Compound 395],0.1 to 1 µM,0.1 to 1 µM
> 10 µM,> 10 µM,1 to 10 µM,1 to 10 µM,0.1 to 1 µM,1 to 10 µM,"Cc1c(O)c(-c2cc(C(C)O)c3nc(N4CCNCC4)ccc3n2)cc2cn(C)nc12 (stereo not drawn) [Compound 364, 5-[4-(1-hydroxyethyl)-6-(piperazin-1-yl)-1,5-naphthyridin-2-yl]-2,7-dimethylindazol-6-ol]",> 10 µM,1 to 10 µM
< 0.1 µM,< 0.1 µM,< 0.1 µM,< 0.1 µM,< 0.1 µM,< 0.1 µM,"Cc1nc2c(F)c(O)c(-c3ccc4nc(N5CC[C@H](N[C@H]6C[C@@H](F)C6)C5)ccc4n3)cc2o1 [Compound 374, 4-fluoro-2-methyl-6-[6-(3-{[(1r,3r)-3-fluorocyclobutyl]amino}pyrrolidin-1-yl)-1,5-naphthyridin-2-yl]-1,3-benzoxazol-5-ol]",< 0.1 µM,< 0.1 µM
1 to 10 µM,1 to 10 µM,0.1 to 1 µM,0.1 to 1 µM,< 0.1 µM,1 to 10 µM,Cn1cc2cc(-c3ccc4nc(N5CC[C@H](NC6CC(F)(F)C6)C5)ccc4n3)c(O)cc2n1 [Compound 384],1 to 10 µM,0.1 to 1 µM
< 0.1 µM,< 0.1 µM,0.1 to 1 µM,0.1 to 1 µM,< 0.1 µM,0.1 to 1 µM,Cn1cc2cc(-c3ccc4nc(N5CC[C@@H](NC6CC(F)(F)C6)C5)ccc4n3)c(O)cc2n1 [Compound 385],0.1 to 1 µM,0.1 to 1 µM
< 0.1 µM,< 0.1 µM,< 0.1 µM,< 0.1 µM,< 0.1 µM,< 0.1 µM,"Cn1cc2cc(-c3ccc4nc(N5CCC(NCC6CC6)C5)ccc4n3)c(O)c(F)c2n1 (stereo not drawn) [Compound 387, 5-(6-{3-[(cyclopropylmethyl)amino]pyrrolidin-1-yl}-1,5-naphthyridin-2-yl)-7-fluoro-2-methylindazol-6-ol]",< 0.1 µM,< 0.1 µM
1 to 10 µM,1 to 10 µM,0.1 to 1 µM,0.1 to 1 µM,< 0.1 µM,0.1 to 1 µM,"Cc1c(O)c(-c2ncc3nc(C4CCNC4)ccc3n2)cc2cn(C)nc12 (stereo not drawn) [Compound 397, 2,7-dimethyl-5-[6-(pyrrolidin-3-yl)pyrido[3,2-d]pyrimidin-2-yl]indazol-6-ol; trifluoroacetic acid]",1 to 10 µM,0.1 to 1 µM
> 10 µM,> 10 µM,1 to 10 µM,1 to 10 µM,0.1 to 1 µM,1 to 10 µM,Cc1c(O)c(-c2ncc3nc([C@H]4CCNC4)ccc3n2)cc2cn(C)nc12 [Compound 399],> 10 µM,1 to 10 µM
